From patent US11278024B2 (priority 2017, dated 2022)
Marks after values point to notes of the source that are not given here.

What was measured:
Format in all cases: in vivo
[1] = tested on: root-knot nematodes (Meloidogyne spp.); test: Petri dish nematocidal activity on hatched root-knot nematodes; conditions: for Number of killed root-knot nematodes: 15 nematodes; for Nematocidal efficiency (%): within 3 days; for Nematocidal efficiency on root-knot nematodes (%): geraniol concentration 685 ppm
Description: The nematodes used in the experiments were Meloidogyne spp. (hatched from eggs from infected roots of melons from farms in Seongju-gun, Gyeongsangbuk-do, Korea), and were propagated using tomato plants from Ecowin Co. Ltd. and used for experiments.
The tomato roots infected with root-knot nematodes were washed with running water and were then cut to a size of about 1 cm, after which 50 g of the cut roots was placed in a 500 ml round-bottom flask containing 200 ml of 0.5% sodium hypochloride (NaOCl), stopped with a rubber stopper, and shaken vigorously for 3 min to sterilize the roots and at the same time burst the egg bag. Thereafter, the solution was passed through a sieve in which 200 mesh was superimposed on 500 mesh, and washed with distilled water, so the eggs of the root-knot nematodes from which the NaOCl solution was removed were recovered.
Next, the eggs of the root-knot nematodes thus recovered were surface-sterilized with 0.5% NaOCl for 10 min, washed thoroughly with sterile distilled water, placed in a phosphate buffer (1%) containing sterilized normal saline, and hatched in an incubator at 25° C.
Thereafter, […], 2 to 3 ml thereof was poured into a Petri dish, after which 15 hatched root-knot nematodes were placed in the Petri dish, and nematocidal activity was measured and the results thereof are shown in Table 1 below.
Nematocidal activity on root-knot nematodes (treatment concentration: […]) was evaluated in the same manner as in Example 1, with the exception that Ostericum koreanum, clove, Myristica fragrans, Acorus gramineus, Kaempferia galanga and Amomum cardamomum L. extracts were used, in lieu of the naturally derived materials. Here, Ostericum koreanum, clove, Myristica fragrans, Acorus gramineus, Kaempferia galanga and Amomum cardamomum L. were purchased from a medicinal plant retailer located in the Daegu area and then extracted using ethanol according to a typical method. Specifically, each medicine was finely crushed, mixed with ethanol at a ratio of 1:5, and extracted at 180 rpm at room temperature for 48 hr, after which as much ethanol as possible was concentrated using a concentrator.
Nematocidal activity on root-knot nematodes was evaluated in the same manner as in Example 1, with the exception that a neem extract was used in lieu of the naturally derived materials.

cyst nematodes = test: Petri dish nematocidal activity on cyst nematodes; conditions: geraniol 2,000 ppm; for Number of killed nematodes: 15 cyst nematodes
Excerpt: (§1) Petri dishes, followed by measurement of nematocidal activity.

spiral nematodes = test: Petri dish nematocidal activity on spiral nematodes; conditions: geraniol 2,000 ppm; for Number of killed nematodes: 15 spiral nematodes
Excerpt: as §1

tomato seedlings = test: Phytotoxicity on tomato seedlings in pots, drenching treatment, observed with the naked eye; conditions: 50 ml drench, 1 week after treatment
Description: Sterilized soil was uniformly mixed, 300 g thereof was then placed in each pot, and tomato seedlings not infected with root-knot nematodes were transplanted thereto.
Sterilized soil was uniformly mixed, 300 g thereof was then placed in each pot, and tomato seedlings not infected with root-knot nematodes were transplanted thereto. The sample prepared in Example 4 was diluted to a standard amount or a multiple thereof for each treatment group, and then 50 ml thereof was used for drenching treatment.

root-lesion nematodes = test: Petri dish nematocidal activity on root-lesion nematodes; conditions: geraniol 2,000 ppm; for Number of killed nematodes: 15 root-lesion nematodes
Excerpt: as §1

For `O=C1CCC[C@@H]2[C@H]3CCC[N+]4([O-])CCC[C@@H](CN12)[C@@H]34` (stereo partly shown) [Oxymatrine, oxymatrine, reference compound], the “Number of killed root-knot nematodes” value ([1]; 2,000 ppm, 1 day) was 7, the “Number of killed root-knot nematodes” value ([1]; 2,000 ppm, 2 days) was 9 and the “Number of killed root-knot nematodes” value ([1]; 2,000 ppm, 3 days) was 10. For the same compound, the “Nematocidal efficiency (%)” value ([1]; 2,000 ppm) was 66.7%.
In the case of pyrethrin [reference compound], the “Number of killed root-knot nematodes” value ([1]; 2,000 ppm, 1 day) is reported as 5, the “Number of killed root-knot nematodes” value ([1]; 2,000 ppm, 2 days) is reported as 6 and the “Number of killed root-knot nematodes” value ([1]; 2,000 ppm, 3 days) is reported as 11. For the same compound, the “Nematocidal efficiency (%)” value ([1]; 2,000 ppm) was 73.3%.
With `CC(C)=CCC/C(C)=C/CO` [Geraniol, geraniol] the “Number of killed root-knot nematodes” value ([1]; 100 ppm, 1 day) was 5, the “Number of killed root-knot nematodes” value ([1]; 100 ppm, 2 days) was 7 and the “Number of killed root-knot nematodes” value ([1]; 100 ppm, 3 days) was 7. The “Nematocidal efficiency (%)” value ([1]; 100 ppm) was 46.7%, the “Number of killed root-knot nematodes” value ([1]; 200 ppm, 1 day) was 5 and the “Number of killed root-knot nematodes” value ([1]; 200 ppm, 2 days) was 7. The “Number of killed root-knot nematodes” value ([1]; 200 ppm, 3 days) was 13, the “Nematocidal efficiency (%)” value ([1]; 200 ppm) was 86.7% and the “Number of killed root-knot nematodes” value ([1]; 333 ppm, 1 day) was 5. For the same compound, the “Number of killed root-knot nematodes” value ([1]; 333 ppm, 2 days) was 6, the “Number of killed root-knot nematodes” value ([1]; 333 ppm, 3 days) was 15 and the “Nematocidal efficiency (%)” value ([1]; 333 ppm) was 100%. For the same compound, the “Number of killed root-knot nematodes” value ([1]; 500 ppm, 1 day) was 5, the “Number of killed root-knot nematodes” value ([1]; 500 ppm, 2 days) was 10 and the “Number of killed root-knot nematodes” value ([1]; 500 ppm, 3 days) was 15. For the same compound, the “Nematocidal efficiency (%)” value ([1]; 500 ppm) was 100%, the “Number of killed root-knot nematodes” value ([1]; 1,000 ppm, 1 day) was 10 and the “Number of killed root-knot nematodes” value ([1]; 1,000 ppm, 2 days) was 15. The “Nematocidal efficiency (%)” value ([1]; 1,000 ppm) was 100%, the “Nematocidal efficiency (%)” value ([1]; 2,000 ppm) was 100% and the “Number of killed root-knot nematodes” value ([1]; 3,000 ppm, 1 day) was 15. For the same compound, the “Nematocidal efficiency (%)” value ([1]; 3,000 ppm) was 100%, the “Number of killed root-knot nematodes” value ([1]; 10,000 ppm, 1 day) was 15^a and the “Nematocidal efficiency (%)” value ([1]; 10,000 ppm) was 100%. The “Nematocidal efficiency on root-knot nematodes (%)” value ([1]; 1 day) was 72.5%, the “Nematocidal efficiency on root-knot nematodes (%)” value ([1]; 2 days) was 93.6% and the “Nematocidal efficiency on root-knot nematodes (%)” value ([1]; 3 days) was 100.0%. The “Nematocidal effect of geraniol alone relative to palmarosa oil containing the same amount of geraniol” value ([1]; same geraniol content (685 ppm)) was “about 4.2 times”, the “Number of killed nematodes” value (cyst nematodes; 1 day) was 8 and the “Number of killed nematodes” value (cyst nematodes; 2 days) was 11. For the same compound, the “Number of killed nematodes” value (cyst nematodes; 3 days) was 12, the Nematocidal efficiency (cyst nematodes; within 3 days) was 80% and the “Number of killed nematodes” value (spiral nematodes; 1 day) was 7. For the same compound, the “Number of killed nematodes” value (spiral nematodes; 2 days) was 9, the “Number of killed nematodes” value (spiral nematodes; 3 days) was 13 and the Nematocidal efficiency (spiral nematodes; within 3 days) was 86.7%. The “Extent of phytotoxicity (0-5)” value (tomato seedlings; 100 ppm) was 0, the Phytotoxicity symptom (tomato seedlings; 100 ppm) was “No” and the “Extent of phytotoxicity (0-5)” value (tomato seedlings; 200 ppm) was 0. For the same compound, the Phytotoxicity symptom (tomato seedlings; 200 ppm) was “No”, the “Extent of phytotoxicity (0-5)” value (tomato seedlings; 330 ppm) was 0 and the Phytotoxicity symptom (tomato seedlings; 330 ppm) was “No”. For the same compound, the “Extent of phytotoxicity (0-5)” value (tomato seedlings; 500 ppm) was 0, the Phytotoxicity symptom (tomato seedlings; 500 ppm) was “No” and the “Extent of phytotoxicity (0-5)” value (tomato seedlings; 1,000 ppm) was 0. For the same compound, the Phytotoxicity symptom (tomato seedlings; 1,000 ppm) was “No”, the “Extent of phytotoxicity (0-5)” value (tomato seedlings; 2,000 ppm) was 0 and the Phytotoxicity symptom (tomato seedlings; 2,000 ppm) was “No”. For the same compound, the “Extent of phytotoxicity (0-5)” value (tomato seedlings; 3,000 ppm) was 0, the Phytotoxicity symptom (tomato seedlings; 3,000 ppm) was “No” and the “Extent of phytotoxicity (0-5)” value (tomato seedlings; 4,000 ppm) was 5. The Phytotoxicity symptom (tomato seedlings; 4,000 ppm) was “Withered”, the “Extent of phytotoxicity (0-5)” value (tomato seedlings; 5,000 ppm) was 5 and the Phytotoxicity symptom (tomato seedlings; 5,000 ppm) was “Withered”. For the same compound, the “Extent of phytotoxicity (0-5)” value (tomato seedlings; 10,000 ppm) was 5, the Phytotoxicity symptom (tomato seedlings; 10,000 ppm) was “Withered” and the “Extent of phytotoxicity (0-5)” value (tomato seedlings; 20,000 ppm) was 5. The Phytotoxicity symptom (tomato seedlings; 20,000 ppm) was “Withered”, the “Number of killed nematodes” value (root-lesion nematodes; 1 day) was 14^a and the “Number of killed nematodes” value (root-lesion nematodes; 2 days) was 15. For the same compound, the Nematocidal efficiency (root-lesion nematodes; within 3 days) was 100%.
For `C/C=C(\C)C(=O)O[C@H]1C[C@@H](OC(C)=O)[C@@]2(C(=O)OC)CO[C@H]3[C@@H](O)[C@@](C)([C@]45O[C@@]4(C)[C@H]4C[C@@H]5O[C@@H]5OC=C[C@@]54O)[C@H]4[C@]1(CO[C@]4(O)C(=O)OC)[C@@H]32` [Azadirachtin, azadirachtin, reference compound], the “Number of killed root-knot nematodes” value ([1]; 2,000 ppm, 1 day) was 7, the “Number of killed root-knot nematodes” value ([1]; 2,000 ppm, 2 days) was 8 and the “Number of killed root-knot nematodes” value ([1]; 2,000 ppm, 3 days) was 10. For the same compound, the “Nematocidal efficiency (%)” value ([1]; 2,000 ppm) was 66.7%.
